Data published in ChEMBL document CHEMBL1155431, “Antimicrobial activity of long-chain (E)-3-alken-2-ones” (2010).
Values after ≈ are worked out from the molar mass of the structure shown. Active and inactive are the calls of the source. No cut-off for these calls is given here.

Experiments:
Malassezia = experiment: Antimicrobial activity against Pityrosporum ovale ATCC 14521 after 3 days by two fold serial broth dilution method; format: functional; conditions: ATCC 14521, 72 h
Pseudomonas aeruginosa = experiment: Antimicrobial activity against Pseudomonas aeruginosa ATCC 10145 after 2 days by two fold serial broth dilution method; format: functional, organism-based
Escherichia coli = experiment: Antimicrobial activity against Escherichia coli ATCC 9637 after 2 days by two fold serial broth dilution method; format: functional, organism-based
Klebsiella aerogenes = experiment: Antimicrobial activity against Enterobacter aerogenes ATCC 13048 after 2 days by two fold serial broth dilution method; format: functional, organism-based
Saccharomyces cerevisiae = experiment: Antimicrobial activity against Saccharomyces cerevisiae ATCC 7754 after 2 days by two fold serial broth dilution method; format: functional, organism-based

SMILES | MIC (Malassezia) [mg/L] | also measured
CCCCCCCCCCCC/C=C/C(C)=O | > 800 | 
CCCCCCCCCCC/C=C/C(C)=O | 400 (≈ 1780 µM) | 
CCCCCCCCCCCCC/C=C/C(C)=O | > 800 | 
CCCCCCC/C=C/C(C)=O | 100 (≈ 594 µM) | 

Second part, led by results:

MIC (Malassezia) [mg/L] | SMILES | also measured
100 (≈ 509 µM) | CCCCCCCCC/C=C/C(C)=O | Activity (Pseudomonas aeruginosa): inactive; Activity (Escherichia coli): inactive; Activity (Klebsiella aerogenes): inactive; Activity (Saccharomyces cerevisiae): inactive
100 (≈ 475 µM) | CCCCCCCCCC/C=C/C(C)=O | 
100 (≈ 549 µM) | CCCCCCCC/C=C/C(C)=O | 
